Patent publication US20220324865A1 (Bayer Aktiengesellschaft, priority 2018, published 2022)

target: T1, human EP3 receptor (Homo sapiens, UniProt P43115); assay: Cellular in vitro assay for determining EP3 receptor activity (human EP3 cell line, sulprostone-stimulated calcium luminescence); format: cell-based; conditions: CHO cells expressing human EP3 and mitochondrial Clytin; antagonist mode, sulprostone at EC50; read-out: EP3 CHO mtCLY ANTAG IC50
T1 construct: expressed in transfected cells; host or cells: CHO K1 (Chinese Hamster Ovary), stably co-transfected with Galpha16 and mitochondrial clytin
T1 sequence (P43115 1-390): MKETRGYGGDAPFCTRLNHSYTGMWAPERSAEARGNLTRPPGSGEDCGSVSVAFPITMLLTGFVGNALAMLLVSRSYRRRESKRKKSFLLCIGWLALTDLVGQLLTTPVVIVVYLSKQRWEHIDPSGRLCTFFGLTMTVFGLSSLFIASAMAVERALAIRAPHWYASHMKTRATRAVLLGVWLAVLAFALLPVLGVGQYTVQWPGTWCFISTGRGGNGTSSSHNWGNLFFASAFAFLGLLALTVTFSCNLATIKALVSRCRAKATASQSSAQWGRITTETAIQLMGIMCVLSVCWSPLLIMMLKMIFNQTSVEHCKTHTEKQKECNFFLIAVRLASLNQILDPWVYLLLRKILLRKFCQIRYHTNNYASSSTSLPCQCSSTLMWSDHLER
Method in brief: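 Antagonist activity was measured as inhibition of the luminescent calcium signal elicited by EC50 sulprostone, following 10 min compound pretreatment. The cell line was recombinant CHO K1 co-expressing human EP3, Gα16 and the photoprotein Clytin, reconstituted with coelenterazine.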

**Q.** For CC(C)(O)[C@@H](NC(=O)c1nn2cc(-c3ccc4ccccc4c3)[nH]c(=O)c2c1C(F)(F)F)c1ccc(F)cc1 [Example 1-19, N-[(1S)-1-(4-Fluorophenyl)-2-hydroxy-2-methylpropyl]-6-(naphthalen-2-yl)-4-oxo-3-(trifluoromethyl)-4,5-dihydropyrazolo[1,5-a]pyrazine-2-carboxamide], which IC50 is on record?
**A.** 0.705 nM

**Q.** How did the IC50 turn out when CCn1cc(Cl)c(CNC(=O)c2nn3c(C)c(-c4ccc5ccccc5c4)[nH]c(=O)c3c2C)n1 [Example 3-8, N-[(4-Chloro-1-ethyl-1H-pyrazol-3-yl)methyl]-3,7-dimethyl-6-(naphthalen-2-yl)-4-oxo-4,5-dihydropyrazolo[1,5-a]pyrazine-2-carboxamide] was run?
**A.** 2.9 nM

**Q.** For Cc1nn(C(C)CNC(=O)c2cc3c(=O)[nH]c(-c4ccc5ccccc5c4)cn3n2)cc1Cl (stereo not shown) [Example 2-18, N-[2-(4-Chlor-3-methyl-1H-pyrazol-1-yl)propyl]-6-(2-naphthyl)-4-oxo-4,5-dihydropyrazolo[1,5-a]pyrazine-2-carboxamide], which IC50 is on record?
**A.** 2.2 nM

**Q.** How did the IC50 turn out when Cc1cc(-c2cn3nc(C(=O)N[C@H](C)C(C)C)c(C4CC4)c3c(=O)[nH]2)ccc1Cl [6-336] was run?
**A.** 3.45 nM

**Q.** For Cc1cc(-c2cn3nc(C(=O)N[C@H](C)C4CC4)c(C(F)(F)C(F)(F)F)c3c(=O)[nH]2)ccc1Cl [6-476], which IC50 is on record?
**A.** 5.3 nM

**Q.** With Cc1cccc2ncc(-c3cn4nc(C(=O)NC(C)c5cccc(Br)c5)c(C(C)C)c4c(=O)[nH]3)cc12 (stereo not shown) [Example 4-62, N-[1-(3-Bromophenyl)ethyl]-3-isopropyl-6-(5-methyl-3-quinolyl)-4-oxo-5H-pyrazolo[1,5-a]pyrazine-2-carboxamide] as the compound, how does the IC50 read?
**A.** 2.05 nM

**Q.** With CC(NC(=O)c1cc2c(=O)[nH]c(-c3ccc4ccccc4c3)cn2n1)c1ccccc1 (stereo not shown) [Example 2-1, 6-(2-Naphthyl)-4-oxo-N-(1-phenylethyl)-5H-pyrazolo[1,5-a]pyrazine-2-carboxamide] as the compound, how does the IC50 read?
**A.** 2.07 nM

**Q.** For Cc1ccc([C@H](C)NC(=O)c2nn3cc(-c4cnc5cccc(C)c5c4)[nH]c(=O)c3c2C(C)C)cc1 [Example 4-56, N-[(7S)-1-(4-Methylphenyl)ethyl]-6-(5-methylquinolin-3-yl)-4-oxo-3-(propan-2-yl)-4,5-dihydropyrazolo[1,5-a]pyrazine-2-carboxamide], which IC50 is on record?
**A.** 4 nM

**Q.** How did the IC50 turn out when O=C(NC(CO)c1cc(Cl)cc(Cl)c1)c1cc2c(=O)[nH]c(-c3ccc4ccccc4c3)cn2n1 (stereo not shown) [Example 2-26, N-[1-(3,5-Dichlorophenyl)-2-hydroxyethyl]-6-(2-naphthyl)-4-oxo-4,5-dihydropyrazolo[1,5-a]pyrazine-2-carboxamide] was run?
**A.** 2.65 nM

**Q.** For O=C(NC1CCN(C2CC2)C1)c1nn2cc(-c3ccc4ccccc4c3)[nH]c(=O)c2c1C(F)(F)F (single isomer, unassigned) [6-500], which IC50 is on record?
**A.** 6.75 nM

**Q.** With Cc1ccc(-c2cn3nc(C(=O)NC(C)c4ccc(F)cc4)cc3c(=O)[nH]2)cc1C (stereo not shown) [Example 5-1, 6-(3,4-Dimethylphenyl)-N-[1-(4-fluorophenyl)ethyl]-4-oxo-5H-pyrazolo[1,5-a]pyrazine-2-carboxamide] as the compound, how does the IC50 read?
**A.** 6.78 nM

**Q.** Which IC50 does the source give for Cc1cccc2ncc(-c3cn4nc(C(=O)Nc5cccc6ncccc56)c(C(C)C)c4c(=O)[nH]3)cc12 [Example 4-29, 6-(5-Methylquinolin-3-yl)-4-oxo-3-(propan-2-yl)-N-(quinolin-5-yl)-4,5-dihydropyrazolo[1,5-a]pyrazine-2-carboxamide] here?
**A.** 1.6 nM

**Q.** Which IC50 does the source give for O=C(N[C@@H](c1ccc(F)cc1)C(F)(F)CO)c1nn2cc(-c3ccc(Cl)c(F)c3)[nH]c(=O)c2c1C(F)F [6-631] here?
**A.** 8.55 nM

**Q.** Cc1ccc(-c2cn3nc(C(=O)NC4(c5ccc(F)cc5)CN(C)C4)c(C(F)(F)F)c3c(=O)[nH]2)cc1C [Example 1-93, 6-(3,4-Dimethylphenyl)-N-[3-(4-fluorophenyl)-1-methylazetidin-3-yl]-4-oxo-3-(trifluoromethyl)-4,5-dihydropyrazolo[1,5-a]pyrazine-2-carboxamide] was tested. Which IC50 did it give?
**A.** 3.58 nM

**Q.** Which IC50 does the source give for O=C(NCc1ccccc1)c1cc2c(=O)[nH]c(-c3ccc4ccccc4c3)cn2n1 [6-16] here?
**A.** 4.16 nM

**Q.** With COc1ccc(C(CCO)NC(=O)c2cc3c(=O)[nH]c(-c4ccc(C(F)(F)F)c(C)c4)cn3n2)cc1 (stereo not shown) [6-31] as the compound, how does the IC50 read?
**A.** 8.03 nM

**Q.** COC(=O)N1CC(NC(=O)c2cc3c(=O)[nH]c(-c4ccc5ccccc5c4)cn3n2)(c2ccc(F)cc2)C1 [Example 1-50, Methyl 3-(4-fluorophenyl)-3-({[6-(naphthalen-2-yl)-4-oxo-4,5-dihydropyrazolo[1,5-a]pyrazin-2-yl]-carbonyl}amino)azetidine-1-carboxylate] was tested. Which IC50 did it give?
**A.** 3.53 nM

**Q.** Cc1c(C(=O)NC(CO)c2ccc(Br)cc2)nn2c(C)c(-c3ccc4ccccc4c3)[nH]c(=O)c12 (stereo not shown) [Example 3-69, N-[1-(4-Bromophenyl)-2-hydroxyethyl]-3,7-dimethyl-6-(2-naphthyl)-4-oxo-5H-pyrazolo[1,5-a]pyrazine-2-carboxamide] was tested. Which IC50 did it give?
**A.** 2.5 nM

**Q.** How did the IC50 turn out when O=C(N[C@H]1c2ccccc2C[C@@H]1O)c1nn2cc(-c3ccc4ccccc4c3)[nH]c(=O)c2c1C(F)(F)F [Example 1-78, N-[(1S,2S)-2-Hydroxy-2,3-dihydro-1H-inden-1-yl]-6-(naphthalen-2-yl)-4-oxo-3-(trifluoromethyl)-4,5-dihydropyrazolo[1,5-a]pyrazine-2-carboxamide] was run?
**A.** 1.06 nM

**Q.** With COC[C@@H](NC(=O)c1nn2cc(-c3ccc(C)c(Cl)c3)[nH]c(=O)c2c1C(F)(F)F)c1ccccc1 [6-177] as the compound, how does the IC50 read?
**A.** 0.67 nM

**Q.** How did the IC50 turn out when Cc1cccc2ncc(-c3cn4nc(C(=O)NCc5cccc(CN6CCCC6)c5)c(C(C)C)c4c(=O)[nH]3)cc12 [Example 4-81, 6-(5-Methylquinolin-3-yl)-4-oxo-3-(propan-2-yl)-N-({3-[(pyrrolidin-1-yl)methyl]phenyl}methyl)-4,5-dihydropyrazolo[1,5-a]pyrazine-2-carboxamide] was run?
**A.** 4.45 nM

**Q.** O=C(NCCc1cccc(F)c1)c1cc2c(=O)[nH]c(-c3ccc4ccccc4c3)cn2n1 [Example 2-52, N-[2-(3-Fluorophenyl)ethyl]-6-(2-naphthyl)-4-oxo-4,5-dihydropyrazolo[1,5-a]pyrazine-2-carboxamide] was tested. Which IC50 did it give?
**A.** 4.4 nM

**Q.** CCn1nccc1C(C)NC(=O)c1nn2cc(-c3cnc4cccc(C)c4c3)[nH]c(=O)c2c1C(C)C (stereo not shown) [Example 4-34, N-[1-(1-Ethyl-1H-pyrazol-5-yl)ethyl]-3-isopropyl-6-(5-methylquinolin-3-yl)-4-oxo-4,5-dihydropyrazolo[1,5-a]pyrazine-2-carboxamide] was tested. Which IC50 did it give?
**A.** 1.09 nM

**Q.** For COC[C@@H](NC(=O)c1nn2cc(-c3ccc4c(c3)ncn4C)[nH]c(=O)c2c1C1CC1)c1ccccc1 [6-600], which IC50 is on record?
**A.** 2.3 nM

**Q.** For Cc1ccc(-c2cn3nc(C(=O)NC(CO)C(F)(F)F)c(C(F)(F)F)c3c(=O)[nH]2)cc1Cl (single isomer, unassigned) [6-163], which IC50 is on record?
**A.** 2.3 nM

**Q.** With O=C(N[C@H](CCO)c1ccc(F)cc1)c1cc2c(=O)[nH]c(-c3ccc4ccccc4n3)cn2n1 [6-12] as the compound, how does the IC50 read?
**A.** 3.05 nM

**Q.** How did the IC50 turn out when Cc1cc(-c2cn3nc(C(=O)N[C@@H](c4ccc(F)cc4)C(C)(C)O)c(C4CCC4)c3c(=O)[nH]2)ccc1Cl [6-620] was run?
**A.** 1.5 nM

**Q.** How did the IC50 turn out when C[C@@H](NC(=O)c1cc2c(=O)[nH]c(-c3ccc4c(c3)COCC4)cn2n1)c1ccc(F)cc1 [Example 1-112, 6-(3,4-Dihydro-1H-2-benzopyran-7-yl)-N-[(1R)-1-(4-fluorophenyl)ethyl]-4-oxo-4,5-dihydropyrazolo[1,5-a]pyrazine-2-carboxamide] was run?
**A.** 3.35 nM

**Q.** For CC(C)(O)[C@@H](NC(=O)c1nn2cc(-c3ccc(Cl)c(F)c3)[nH]c(=O)c2c1C(F)(F)C(F)(F)F)c1ccc(F)cc1 [6-493], which IC50 is on record?
**A.** 2.98 nM

**Q.** COc1ccc(C2(NC(=O)c3nn4cc(-c5ccc(Cl)c(C)c5)[nH]c(=O)c4c3C(F)(F)F)CN(C)C2)cc1 [6-213] was tested. Which IC50 did it give?
**A.** 3.15 nM

**Q.** For COC[C@H](NC(=O)c1cc2c(=O)[nH]c(-c3ccc(C)c(C)c3)cn2n1)c1ccccc1 [6-50], which IC50 is on record?
**A.** 1.3 nM

**Q.** Cc1ccc(-c2cn3nc(C(=O)N[C@H](C)CO)c(C4CC4)c3c(=O)[nH]2)cc1C [Example 1-154, 3-Cyclopropyl-6-(3,4-dimethylphenyl)-N-[(2R)-1-hydroxpropan-2-yl]-4-oxo-4,5-dihydropyrazolo-[1,5-a]pyrazine-2-carboxamide] was tested. Which IC50 did it give?
**A.** 2.6 nM

**Q.** Cc1cccc2ncc(-c3cn4nc(C(=O)NC(CO)c5cc(Cl)cc(Cl)c5)c(C(C)C)c4c(=O)[nH]3)cc12 (stereo not shown) [Example 4-66, N-[1-(3,5-Dichlorophenyl)-2-hydroxyethyl]-3-isopropyl-6-(5-methyl-3-quinolyl)-4-oxo-5H-pyrazolo[1,5-a]pyrazine-2-carboxamide] was tested. Which IC50 did it give?
**A.** 3.9 nM

**Q.** Which IC50 does the source give for Cc1ccc(-c2cn3nc(C(=O)N[C@H](C)C(C)(C)C)c(C(F)(F)F)c3c(=O)[nH]2)cc1Cl [6-192] here?
**A.** 3.03 nM

**Q.** For CC(C)(C)OC(=O)N1CC(NC(=O)c2cc3c(=O)[nH]c(-c4ccc5ccccc5c4)cn3n2)(c2ccc(F)cc2)C1 [Example 1-47, tert.-Butyl 3-(4-fluorophenyl)-3-({[6-(naphthalen-2-yl)-4-oxo-4,5-dihydropyrazolo[1,5-a]pyrazin-2-yl]carbonyl}amino)azetidine-1-carboxylate], which IC50 is on record?
**A.** 4.65 nM

**Q.** For Cc1ccc(-c2cn3nc(C(=O)NC4(c5ccc(F)cc5)COC4)cc3c(=O)[nH]2)cc1C [6-55], which IC50 is on record?
**A.** 1.53 nM

**Q.** Cc1ccc(-c2cn3nc(C(=O)N[C@@H](c4ccc(F)cc4)C(C)(C)O)c(C(C)C)c3c(=O)[nH]2)cc1C [Example 1-135, 6-(3,4-Dimethylphenyl)-N-[(1S)-1-(4-fluorophenyl)-2-hydroxy-2-methylpropyl]-4-oxo-3-(propan-2-yl)-4,5-dihydropyrazolo[1,5-a]pyrazine-2-carboxamide] was tested. Which IC50 did it give?
**A.** 5.8 nM
